Test system: German cockroaches (Blattella germanica)
Assay: Knock-down test by spraying oil solution on German cockroaches
Format: in vivo
Conditions: 0.00625% (w/v) oil solution, 1.5 ml sprayed, ten adult German cockroaches (5 males, 5 females)
Experimental: Zero point zero zero six two five (0.00625) part of the compound of the present inventions (1) and (2) was dissolved in 10 parts of isopropyl alcohol and the solution was mixed with 89.99375 parts of deodorized kerosene to prepare a 0.00625% (w/v) oil solution.
Ten adult German cockroaches (Blattella germanica, 5 males and 5 females) were released in a test container (diameter 8.75 cm, 7.5 cm high, the bottom face is made of 16 mesh metallic wire), the inner face on which butter was applied, and the container was set at the bottom of a test chamber (bottom face: 46 cm×46 cm, height: 70 cm).
Each 1.5 ml of the oil solution of the compound of the present invention (1) and (2) was sprayed using a spray gun at a pressure of 0.4 kg/cm^2 from 60 cm higher than the upper face of the container. Thirty seconds after the spraying, the container was pulled out from the chamber. Two minutes after spraying, the number of knocked-down cockroaches was counted and a knock-down ratio was determined (repeated once). A knocked-down ratio was calculated by the following equation. Knocked-down ratio (%)=(Number of knocked-down cockroaches/Number of test cockroaches)×100 The results (2 minutes after spraying) are shown in Table 1.

Compound | Knock-down ratio (%) 2 minutes after spraying [%]
C#CCn1c(C)nn(COC(=O)[C@@H]2[C@@H](/C=C(\C#N)C=C)C2(C)C)c1=O [compound of the present invention (1), 3-methyl-5-oxo-4-(2-propynyl)-4,5-dihydro-[1,2,4]triazolylmethyl=(1R)-trans-3-[(1Z)-2-cyano-1,3-butadienyl]-2,2-dimethylcyclopropane carboxylate] | 100
C#CCn1c(C)nn(COC(=O)[C@@H]2[C@@H](/C=C(C#N)/C=C/C)C2(C)C)c1=O [compound of the present invention (2), 3-methyl-5-oxo-4-(2-propynyl)-4,5-dihydro-[1,2,4]triazolylmethyl=(1R)-trans-3-[(1Z,3E)-2-cyano-1,3-pentadienyl]-2,2-dimethylcyclopropane carboxylate] | 100

— patent US8614241B2, “Ester compound and use thereof” (Sumitomo Chemical Company, Limited, priority 2010, dated 2013)
